# Where two headings read alike, the source gives them in different places.
# What was measured:
# [1] = cited from earlier work
# [2] = Assay and related substances under accelerated conditions 40° C./75% RH; format: physicochemical
# clinical [3] = details: for concentration at 0.5 h / concentration at 1 h / concentration at 2 h / concentration at 3 h: both, human, in vivo
# Description: A single center, randomized, single and multiple doses, open-label, 2-period, 2-sequence, crossover study was carried out on male and female volunteers.
# A Phase I Open-Label, 2-Arm Crossover Study to Evaluate the Relative Bioavailability of the pharmaceutical composition, also herein as test formulation (Rifabutin/Amoxicillin/Omeprazole 12.5 mg/250 mg/10 mg) capsules given 3 times a day, every 8 hours, compared to the concomitant administration of the three drug substance components in fasted healthy volunteers (Table 13). Test formulation (Treatment-1) was analyzed in comparison to the pharmacokinetics of the reference drugs rifabutin, amoxicillin and omeprazole given concomitantly (Treatment-2) under fasting conditions.
# Treatment-1: 4× Test formulation Amoxicillin, Rifabutin, Omeprazole 250 mg/12.5 mg/10 mg capsules (Test) given three times daily, in the morning, afternoon and evening, 8 hours apart, for a total daily oral dose of 3000 mg/150 mg/120 mg.
# Treatment-2: 1× Mycobutin® 150 mg capsule (Reference-1)+2× Amoxicillin 500 mg capsule (Reference-2)+1× Prilosec® 40 mg delayed-release capsule (Reference-3) taken concomitantly each given three times daily, in the morning, afternoon and evening, 8 hours apart, for a total daily oral dose of 150 mg rifabutin/3000 mg amoxicillin/120 mg omeprazole.
# Reference-1 Product, Dose and Mode of Administration: • Name: Mycobutin® • Dosage form/Route of administration: Capsule/Oral • Regimen: Single 150 mg dose (1×150 mg) given once in the morning, for a total daily oral dose of 150 mg.
# Reference-2 Product, Dose and Mode of Administration: • Name: Amoxicillin • Dosage form/Route of administration: Capsule/Oral • Regimen: Single 1000 mg dose (2×500 mg) given three times daily, in the morning, afternoon and evening, 8 hours apart, for a total of a total daily oral dose of 3000 mg.
# Reference-3 Product, Dose and Mode of Administration: • Name: Prilosec® • Dosage form/Route of administration: Delayed Release Capsule/Oral • Regimen: Single 40 mg dose (1×40 mg), given three times daily, in the morning, afternoon and evening, 8 hours apart, for a total of a total daily oral dose of 120 mg
# Treatments: • Treatment-1: 4 capsules of the Test formulation was given three times daily, in the morning, afternoon and evening, 8 hours apart, for a total daily oral dose of 150 mg rifabutin/3000 mg amoxicillin/120 mg omeprazole) • Treatment-2: Reference-1 drug (Rifabutin) was given once in the morning together with 2 capsules of Reference-2 drug (amoxicillin) and 1 capsule of Reference-3 drug (Omeprazole). Each reference drug was given three times daily, in the morning, afternoon and evening, 8 hours apart, for a total daily oral dose of 150 mg rifabutin/3000 mg amoxicillin/120 mg omeprazole).
# Single and multiple oral doses were administered under fasting conditions in each study period. The drug administrations were separated by a wash-out of 14 calendar days.
# For each Treatment in each study period, 78 blood samples were collected on 26 occasions.
# Main absorption and disposition parameters using a non-compartmental approach with a log-linear terminal phase assumption. Trapezoidal rule to estimate the area under the curve. The pharmacokinetic parameters for this study were to be Cmax, Tmax, Cmin, C24, Clast, Tlast, AUC0-24, AUC∞, Kel and T1/2el.
# Statistical analysis of Tmax based on a non-parametric approach. Statistical analysis of all other pharmacokinetic parameters based on a parametric ANOVA model. […] ANOVA Model: • fixed factors: sequence, period, treatment • random factor: subject (nested within sequence) Safety: • Descriptive statistics.
# [4] = cited from earlier work; remark: listed apart in the source
# [5] = In vitro dissolution assay, 900 ml 0.01 N HCl, 100 rpm, baskets apparatus; format: physicochemical
# Description: In some embodiments, an average of no less than 80% of amoxicillin is released in 60 min at 100 rpm in a baskets apparatus (900 ml 0.01 N HCl, at 100 rpm in a baskets apparatus). In some embodiments, an average of 90%, 96%, and 97% of the amoxicillin is released in an in vitro dissolution assay at 20, 30, and 45 minutes, respectively.
# In some embodiments, an average of no less than 75% of rifabutin is released in 45 min at 100 rpm in a baskets apparatus (900 ml 0.01 N HCl, at 100 rpm in a baskets apparatus). In some embodiments, an average of 95, 97, and 98% of the rifabutin is released in an in vitro dissolution assay at 20, 30, and 45 minutes, respectively.
# plasma proteins = details: cited from earlier work
# [6] = cited from earlier work; remark: listed apart in the source
# H. pylori = details: cited from earlier work
# clinical [7] = details: human, in vivo, 50 mg
# [8] = single oral 1000 mg dose of amoxicillin capsules, fasting
# [9] = single oral 150 mg dose of rifabutin capsules, fasting
compound,measurement,setting,value
25-O-desacetylrifabutin,plasma metabolite: parent area under the curve ratio,[1]; in vivo,0.10
31-hydroxyrifabutin,plasma metabolite: parent area under the curve ratio,[1]; in vivo,0.07
CC1(C)S[C@@H]2[C@H](NC(=O)[C@H](N)c3ccc(O)cc3)C(=O)N2[C@H]1C(=O)O [Amoxicillin],"Related Substances, Total",[2]; T = 0,2.21 % area
same,"Related Substances, Total","[2]; T = 1 month, 40° C./75% RH",3.01 % area
same,concentration at 0.5 h,clinical [3],2380 ng/mL
same,concentration at 1 h,clinical [3],8920 ng/mL
same,concentration at 2 h,clinical [3],14700 ng/mL
same,concentration at 3 h,clinical [3],11300 ng/mL
same,T1/2el,"[4]; in vivo, po, 1000 mg",1.15 h
same,time to peak serum concentrations,"[4]; in vivo, po",1 to 2 h
same,peak serum concentrations relative to equivalent dose of oral ampicillin,[4]; in vivo,2-2.5 times
same,stability in gastric acid,[4]; in vivo,stable in the presence of gastric acid
same,Cmax,[4]; [8],14000 ng/mL
same,Tmax,[4]; [8],1.65 h
same,average released in in vitro dissolution assay,[5]; 20 minutes,90%
same,average released in in vitro dissolution assay,[5]; 30 minutes,96%
same,average released in in vitro dissolution assay,[5]; 45 minutes,97%
COc1ccc2[nH]c([S+]([O-])Cc3ncc(C)c(OC)c3C)nc2c1 (centres unmarked) [Omeprazole],plasma protein binding,plasma proteins,about 95%
same,concentration at 0.5 h,clinical [3],85.8 ng/mL
same,concentration at 1 h,clinical [3],613 ng/mL
same,concentration at 2 h,clinical [3],828 ng/mL
same,concentration at 3 h,clinical [3],466 ng/mL
same,T1/2el,"[6]; in vivo, po, 40 mg",1 h
same,drug absorbed from the gastrointestinal tract,"[6]; in vivo, po",approximately 35%
same,dose excreted in the feces,[6]; in vivo,20%
same,dose recovered as urinary metabolites,[6]; in vivo,80%
same,time to completion of absorption,[6]; in vivo,≤ 4 h
same,average half-life of the terminal phase,[6]; plasma concentration-time curve,approximately 40 minutes
same,Tmax,"[6]; single oral 40 mg dose of omeprazole delayed-release capsules, fasting",1.75 h
CO[C@H]1/C=C/O[C@@]2(C)Oc3c(C)c(O)c4c(c3C2=O)C2=NC3(CCN(CC(C)C)CC3)NC2=C(NC(=O)/C(C)=C\C=C\[C@H](C)[C@H](O)[C@@H](C)[C@@H](O)[C@@H](C)[C@H](OC(C)=O)[C@@H]1C)C4=O [Rifabutin],"Related Substances, Total",[2]; T = 0,1.13 % area
same,"Related Substances, Total","[2]; T = 1 month, 40° C./75% RH",2.11 % area
same,bound to plasma proteins,plasma proteins; concentration range of 50 to 1000 ng/ml,About 85%
same,mean systemic clearance,"[1]; healthy adult volunteers, single oral dose",0.69 (±0.32) L/hour/kg
same,Cmax,"[1]; in vivo, po, 150 mg",188 ng/mL
same,dose absorbed,"[1]; in vivo, po",at least 53%
same,time to peak plasma concentrations,"[1]; in vivo, po",2 to 4 h
same,contribution of renal and of biliary excretion of unchanged drug to systemic clearance,[1]; in vivo,approximately 5%
same,decrease of AUC following multiple dosing,[1]; in vivo,38%
same,"steady-state trough levels (Cp, Cminss, 24-hour post dose)",[1]; in vivo,50 to 65 ng/mL
same,initial half-life,"[1]; plasma elimination, biphasic",approximately 4 hours
same,T1/2el,[1]; [9],40 h
same,Tmax,[1]; [9],3 h
same,mean rate of H. pylori resistance,H. pylori; in general,1.3%
same,mean rate of H. pylori resistance,H. pylori; patients naïve to H. pylori eradication treatment,0.6%
same,Cmax,clinical [7],~63 ng/mL
same,"extent of absorption of rifabutin, single 150 mg capsule relative to test formulation tid",clinical [3]; 150 mg rifabutin over 24 hours in both treatments,1.5 times
same,concentration at 0.5 h,clinical [3],5.52 ng/mL
same,concentration at 1 h,clinical [3],28.1 ng/mL
same,concentration at 2 h,clinical [3],66.1 ng/mL
same,concentration at 3 h,clinical [3],72.5 ng/mL
same,average released in in vitro dissolution assay,[5]; 20 minutes,95%
same,average released in in vitro dissolution assay,[5]; 30 minutes,97%
same,average released in in vitro dissolution assay,[5]; 45 minutes,98%

# From patent US11931463B2, “All-in-one fixed-dose combination for treating Helicobacter pylori infection” (RedHill Biopharma Ltd., priority 2013, dated 2024)
